Series [1] deals with TNF-induced IL-6 production in L929sA cells. Briefly: TNF-induced IL-6 production, murine IL-6 ELISA. The class given is cell-based. The following applies: 1 h pre-incubation, TNF 200 IU/ml 24 h, DEX 0.01 μM, GW647 0.25-1 μM, WY 2-10 μM, FIG. 1. Here is the method:
Murine IL-6 ELISA is performed using a kit from Biosource.
Medium is collected to perform a murine IL-6 ELISA. Protein levels obtained in ng/ml are calculated as % of max TNF response. Results are shown ±SD. **P<0.01, ***P<0.001 in FIG. 1.
(In an ELISA, binding on a coated surface is turned into a signal by an enzyme label.)

The subject of series [2] is human placental alkaline phosphatase (hPAP) mRNA. Briefly: Semi-quantitative PCR of hPAP mRNA. The conditions noted are these: HepG2 and A549 cells, 8 h; DEX 1 μM, WY 10 μM; co-treatment compared to DEX alone. The class given is cell-based. Here is the method: (§1) RNA extraction is performed as described before (12). RNA is isolated from cells by using TRIzol reagent (Invitrogen) according to the manufacturer's instructions. The reverse transcriptase reaction is done by using MLV enzyme (Promega) followed by a PCR reaction with Taq polymerase (Promega) on the obtained cDNA. cDNA is analyzed either by a semi-quantitative PCR using Taq polymerase (Promega) or by real-time PCR with a SYBR Green mastermix (Invitrogen). Primers for QPCR of mIL-6: fwd […] (SEQ ID No. 1) and rev […] (SEQ ID No. 2); for mGILZ: fwd […] (SEQ ID No. […]) and rev […] (SEQ ID No. 4); for hGILZ: fwd […] (SEQ ID No. 5) and rev […] (SEQ ID No. 6); for mG6Pase: fwd […] (SEQ ID No. 7) and rev […] (SEQ ID No. 8); for rMCP-1: fwd […] (SEQ ID No. 9) and rev […] (SEQ ID No. 10); for mMMP-9: […] (SEQ ID No. 11) and rev […] (SEQ ID No. 12). Primers for semi-QPCR of hPLAP: fwd […] (SEQ ID No. 13) and rev […] (SEQ ID No. 14).
A549 or HepG2 cells are treated for eight hours, mRNA is isolated, reverse transcribed and the resulting cDNA is subjected to semi-quantitative PCR analysis with primers to detect GAPDH (loading control) or hPAP in the same sample. […] Treatment with WY alone has no effect on hPAP mRNA expression.

Series [3] has as its system Glucocorticoid-induced Leucine Zipper (GILZ) mRNA. Briefly: QPCR of GILZ mRNA in HepG2 cells. The class given is cell-based, human. The following applies: HepG2 (and A549) cells, 3 h; co-treatment compared to DEX alone. The procedure:
as §1
HepG2 cells and FTO2B cells are incubated with the indicated agents for three hours. mRNA is isolated, reverse transcribed and the resulting cDNA is subjected to SYBR green QPCR with primers to detect G6Pase or Glucocorticoid-induced Leucine Zipper (GILZ). QPCR measurements are performed in triplicate. QPCR results, normalized to expression of household genes, are shown ±SD, in FIGS. 2B and 2C. […]

Series [4] relates to GRE-driven gene transcription. Briefly: p(GRE)2-50-luc reporter in HepG2 cells. The class given is cell-based, human. The conditions noted are these: HepG2 overexpressing PPARα (pSG5PPARα); 8 h.
Description: HepG2 and BWTG3 cells are transiently transfected using Lipofectamine according to the manufacturer's instructions, HEK293T cells using CaPO4. At day −1 40,000-50,000 cells/24-well are seeded. At day 0, medium is replaced by 360 μl of fresh normal medium with 10% serum to the cells. The DNA mix is prepared by dissolving (per 24-well) 400 ng of DNA in 20 μl of TE/CaCl2 solution. The DNA-containing mixture is added dropwise to 20 μl BS/Hepes mixture. All is mixed until a fine precipitate is visible. This precipitate is finally added onto the 360 μl medium. After 8 h, medium is replaced with fresh normal medium with 10% serum and inductions are performed the following day. […]
Luc and β-gal assays are carried out according to instructions of the manufacturer (Promega). Luc activity, expressed in arbitrary light units, is corrected for the protein conc. in the sample by normalization to constitutive β-gal levels. β-gal levels are quantified with a chemiluminescent reporter assay Galacto-Light kit (TROPIX, Bedford, Mass.).
HepG2 cells are transiently transfected with p(GRE)2-50-luc, and pSG5PPARα (black bars) or pSG5 (white bars). […] Promoter activities are expressed as relative induction factor, i.e., the ratio of expression levels of induced versus non-induced conditions.
The test system of series [5] is PDK-4 mRNA (PPARα target gene). Briefly: PDK-4 mRNA in primary hepatocytes of WT and PPARα KO mice. The class given is cell-based, mouse. The conditions noted are these: 24 h, GW9578 500 nM, WY 10 μM. Here is the method: Mouse hepatocytes are isolated by collagenase perfusion from livers of wild type and PPARα KO (PPARα−/−) mice essentially using the collagenase method (18), with several modifications. Mouse livers are perfused with Hanks' balanced salt solution (HBSS, Sigma) at a rate of 5 ml/min via cave vein before addition of collagenase Type IV (0.025%, Sigma). Cell viability is assessed by a Trypan Blue exclusion test. […] After overnight incubation, cells are incubated in a fresh William's E medium supplemented with different compounds, DEX and/or PPARα agonists.

In a further series the test system is cathepsin K. Briefly: Cathepsin K expression in MG63b osteosarcoma cells. The class given is cell-based, human. The conditions noted are these: 24 hour, DEX 10^−6M, WY 10 μM.
Series [6] relates to NF-κB-driven gene expression. Briefly: p(IL6κB)350hu.IL6P-luc reporter in transfected HEK293T cells. The class given is cell-based. The following applies: TNF 2000 IU/ml 8 h. Here is the method:
(§2) Cell lysates are assayed for luciferase activities and normalized for β-gal activities. A representative of three independent experiments is shown.

Series [7] concerns GRE-driven gene expression. Briefly: p(GRE)2-50-luc reporter in transfected HEK293T cells. The class given is cell-based. The conditions noted are these: 8 h, DEX 1 or 0.1 μM. Here is the method:
as §2

For another series, the target named is T1, mouse PPARα (Mus musculus, UniProt P23204).
T1 sequence (P23204 1-468): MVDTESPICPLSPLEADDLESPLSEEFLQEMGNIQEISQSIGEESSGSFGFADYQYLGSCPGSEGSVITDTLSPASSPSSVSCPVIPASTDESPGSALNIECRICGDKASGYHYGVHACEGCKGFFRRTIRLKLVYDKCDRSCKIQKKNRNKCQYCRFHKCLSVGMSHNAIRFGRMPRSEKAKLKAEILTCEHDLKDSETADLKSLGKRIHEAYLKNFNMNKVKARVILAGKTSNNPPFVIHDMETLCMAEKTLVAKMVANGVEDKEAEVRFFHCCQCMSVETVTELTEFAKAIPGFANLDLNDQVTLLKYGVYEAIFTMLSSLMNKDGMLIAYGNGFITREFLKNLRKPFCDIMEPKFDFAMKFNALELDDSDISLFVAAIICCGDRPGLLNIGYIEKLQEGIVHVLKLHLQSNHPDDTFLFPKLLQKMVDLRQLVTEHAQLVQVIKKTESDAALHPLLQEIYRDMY
The conditions noted are these: cited from earlier work.

For the next series, the system named is ACO mRNA in mouse liver. Briefly: Liver ACO mRNA in treated mice. The class given is in vivo. The conditions noted are these: DEX 10 mg/kg i.p., FF 200 mg/kg gavage, daily 5 days. The source says: Female C57BL6J mice are used at 8 weeks. Mice are randomized to four groups (six mice/group) and matched for body weight. Animals are killed by cervical dislocation after which thymus and liver are recovered and weighed. Total RNA is extracted from liver as described below. ANOVA is used for all analyses, followed by Scheffe post-hoc tests for treated vs control comparisons. The level of significance for all statistical analyses is set at p<0.05.
GILZ and ACO mRNA expression levels from the liver are quantified via QPCR and normalized for household gene expression. Results from triplicates are shown ±SD. Results are represented as relative expression fold, i.e. with the solvent-treated control value taken as 1.

The subject of a further series is calvarial cells. Briefly: Ex vivo osteoclastogenesis and osteoblast differentiation of calvarial cells. The class given is cell-based, mouse. The conditions noted are these: pharmacological DEX concentrations. Here is the method: Glucocorticoid-induced osteoporosis (GIO) has been considered one of the most debilitating side-effects related to long-term GC usage (Berris, Repp et al. Curr Opin Endocrinol Diabetes Obes 14(6): 446-50). The effects of compositions and methods of the present invention on glucocorticoid-induced osteoporosis is determined by analysis of markers of osteoclastogenesis, including cathepsin K, M-CSF, RANKL and OPG. Since it is believed that an increase in bone resorption is worsened by inhibition of new bone formation, thereby contributing to the GC-mediated decrease in bone mineral density, the effect compositions and methods of the present invention on osteoblast differentiation is determined using calvarial cells isolated from 3-5 day old mice.
Alkaline phosphatase staining and Q-PCR are performed for the detection of Collal, Alkp, Runx-2 and Bglap (osteocalcin) expression after 10 days of osteoblast differentiation. Alizarin Red staining is performed to determine extracellular calcium deposition after 20 days of osteoblast differentiation.
Calvarial cells are isolated from 3-5 day old mice (SV 129 background). A piece of the tail is isolated for genotyping. The pups are decapitated with scissors in the laminar flow cabinet, skin and brain are removed and the calvaria transferred into eppendorf tubes containing 1 ml PBS+1% Pen/Strep. The tubes are put on ice until digestion. […]

Another series concerns TRAP5b. Briefly: Serum TRAP5b ELISA in DBA/1 mice. The following applies: DBA/1 mice serum, daily treatment 8 days. The class given is in vivo, mouse. The text has this:
(§3) Male 8- to 12-wk-old DBA/1 mice are purchased from Janvier and housed following institutional guidelines. All animal procedures are approved by the institutional animal care and ethics committee. […] The experiment is repeated with agonists for PPARα replaced by the respective agonists for PPARγ (rosiglitazone) or PPARβ/δ (L165041). At day 8, murine serum is collected and used for the determination of TRAP5b and osteocalcin levels. The Mouse TRAP™ Assay is purchased from Immunodiagnostic Systems Ltd. The Mouse Osteocalcin EIA kit is purchased from Biomedical Technologies, Inc. All assays are performed according to the manufacturer's guidelines.
(§4) The experiment is repeated with agonists for PPARα replaced by the respective agonists for PPARγ (rosiglitazone) or PPARβ/δ(L165041). A TRAP5b ELISA assay is performed for the detection of differentiated osteoclasts.

A further series deals with osteocalcin. Briefly: Serum osteocalcin in DBA/1 mice. The class given is in vivo, mouse. The conditions noted are these: daily treatment 8 days.
Description: as §3, §4

This is an account of results in patent US20100240627A1, “COMPOSITION AND METHODS RELATING TO GLUCOCORTICOID RECEPTOR-ALPHA AND PEROXISOME PROLIFERATOR-ACTIVATED RECEPTORS” (Universiteit Gent, priority 2007, published 2010).

Description for cathepsin K: Cell culture—Human osteosarcoma cells MG63b and Saos-2 are cultured in Dulbecco Modified Eagle's Medium (DMEM) and McCoy's 5a Medium respectively, supplemented with 10% fetal calf serum (FCS), 100 units/ml penicillin and 0.1 mg/ml streptomycin. RT-PCR—After the appropriate inductions RNA is isolated from the cells by means of the RNeasy mini kit (Qiagen) according to the manufacturer's instructions. The mRNA is reverse transcribed with the verso cDNA kit (ABgene). The obtained cDNA is amplified by a quantitative PCR reaction with iQ Custom SYBR Green Supermix (Biorad). Gene expression of the housekeeping gene hypoxanthine-guanine phosphoribosyltransferase (HPRT) is used for normalization.

Turning to `Cc1cccc(Nc2cc(Cl)nc(SCC(=O)O)n2)c1C` [WY, [[4-chloro-6-[(2,3-dimethylphenyl)amino]-2-pyrimidinyl]thio]-acetic acid], the “TNF-induced IL-6 production” value in series [1] is “inhibited TNF-induced IL-6 production in a dose-responsive manner”. In series [2], the “hPAP mRNA expression” value is “no effect”. The “GILZ mRNA expression” value in series [3] is “no effect”. Besides, the “DEX-induced luciferase activity of p(GRE)2-50-luc” value in series [4] is “confirmed”. In addition, the “PDK-4 mRNA levels” value in series [5] is on record as “significant increase in PDK-4 mRNA levels only in WT cells”. Besides, the “cathepsin K expression” value in the series on cathepsin K was “prevent or reverse the upregulation”.

Regarding `CCCc1c(OCCCOc2ccc(OCC(=O)O)cc2)ccc(C(C)=O)c1O` [L165041], the “NF-κB-driven gene expression (luc)” value in series [6] (HEK293T with pSVhGRα and pSG5PPARδ, L165041, FIG. 12B) is on record as “efficiently inhibit NF-κB-driven gene expression”. In [7] (HEK293T with pSVhGRα and pSG5PPARδ, L165041 1 μM, FIG. 13B), the “GRE-driven gene expression (luc)” value is listed as “able to antagonize the GRE-driven gene expression”.

For `CCCCCCCN(CCc1ccc(SC(C)(C)C(=O)O)cc1)C(=O)Nc1ccc(F)cc1F` [GW9578], the “PDK-4 mRNA levels” value in series [5] is “significant increase in PDK-4 mRNA levels only in WT cells”. For the same compound, the EC50 at mouse PPARα was 5 nM.

Turning to `O=S(=O)(c1ccccc1)N(CC(F)(F)F)c1ccc(C(O)(C(F)(F)F)C(F)(F)F)cc1` [T0901317], in series [6] (HEK293T with pSVhGRα and LXR plasmid, T0901317 1 μM, FIG. 12C), the “NF-κB-driven gene expression (luc)” value is “efficiently inhibit NF-κB-driven gene expression”. Besides, in [7] (HEK293T with pSVhGRα and pCMX-LXR, T0901317 1 μM, FIG. 13C), the “GRE-driven gene expression (luc)” value is recorded as “not able to antagonize GRE-driven gene expression”.

`C[C@@H]1C[C@H]2[C@@H]3CCC4=CC(=O)C=C[C@]4(C)[C@@]3(F)[C@@H](O)C[C@]2(C)[C@@]1(O)C(=O)CO` [DEX, dexamethasone]: in the series with ACO mRNA in mouse liver, the “ACO mRNA levels in liver” value is reported as “no effect”. In addition, in the series on calvarial cells, the osteoclastogenesis entry is on record as “inhibit osteoclastogenesis”. Moreover, the TRAP5b levels entry in the series with TRAP5b was “upregulates TRAP5b levels after 8 days”. Moreover, the “amount of osteocalcin in murine serum” value in the series with osteocalcin is listed as “significantly lowers”.

In the case of `CC(C)(Sc1ccc(CCN(CCCCC2CCCCC2)C(=O)NC2CCCCC2)cc1)C(=O)O` [GW647, 2-(4-(2-(1-Cyclohexanebutyl-3-cyclohexylureido)ethyl)phenylthio)-2-methylpropionic acid], the “TNF-induced IL-6 production” value in [1] is given as “inhibited TNF-induced IL-6 production in a dose-responsive manner”. The “DEX-induced luciferase activity of p(GRE)2-50-luc” value in series [4] is listed as “further enhanced”. Further, the “NF-κB-driven gene expression (luc)” value in series [6] (HEK293T with pSVhGRα and pSG5PPARα, GW647 0.5 μM, FIG. 12A) is reported as “inhibits NF-κB-driven gene expression”. In addition, the “GRE-driven gene expression (luc)” value in series [7] (HEK293T with pSVhGRα and pSG5PPARα, GW647 0.5 μM, FIG. 13A) is listed as “able to antagonize GRE-driven gene expression”.

As usually defined, the EC50 is the concentration that produces a half-maximal response.
